Reference: PMC5915149, “The role of oxidative stress in activity of anticancer thiosemicarbazones” (Oncotarget, 2018)
Like-named read-outs stand apart in the source and are kept apart here. Values belong to the compound of their own block, whether it stands above or below them.

Columns and labels:
NHDF [1] = test: MTS cytotoxicity assay, normal fibroblasts; assay type: cell-based, human; details: 96 h incubation
Protocol: (§1) The cells were seeded in 96-well plates (Nunc) at a density of 3,500 cells/well (HCT116 and MCF-7) and 3,000 cells/well (NHDF) and incubated at 37° C for 24 h. The assay was performed following a 96 h incubation with varying concentrations of the compounds that were being tested. Then, 20 µL of CellTiter 96® AQueous One Solution-MTS (Promega) was added to each well (with 100 µL DMEM without phenol red) and incubated for 1 h at 37° C. The optical densities of the samples were analyzed at 490 nm using a multi-plate reader (Synergy 4, Bio Tek). Results were expressed as a percentage of the control and calculated as the inhibitory concentration (IC50) values (using GraphPad Prism 5). The IC50 parameter was defined as the compound concentration that was necessary to reduce the proliferation of cells to 50% of the untreated control. Each individual compound was tested in triplicate in a single experiment with each experiment being repeated three or four times.

MCF-7 = test: MTS antiproliferative assay, MCF-7 (with or without added metal ions); assay type: cell-based, human
Protocol: as §1
(§2) The HCT116 and MCF-7 cells were seeded in 96-well plates (Nunc) at a density of 3,500 cells/well and incubated at 37° C for 24 h. The MTS assay was performed following a 96 h incubation with varying concentrations of the tested compounds. Additionally, a 20 µM solution of CuSO4, FeSO4 or FeCl3 was added into wells with the tested compounds. The results were expressed as a percentage of the control and calculated as the inhibitory concentration (IC50) values using GraphPad Prism 5. Each individual compound was tested in triplicate in a single experiment with each experiment being repeated three times.

CAT = test: mRNA expression (Real-Time PCR) of CAT; assay type: cell-based, human; details: HCT116, TSC 1 µM, after the first 12 h
Protocol: (§3) The HCT116 cells were seeded in 3 cm Petri dishes (Nunc) at a density of 0.5·10^6 cells/well and incubated overnight. Next, the medium was removed and solutions of TSC (1 μM) and DOX (5 μM) were added. After 12 or 24 h, total RNA was isolated from the cells using TRIzol Reagent (Ambion) according to the manufacturer’s instructions. cDNA synthesis was performed with 5 μg of total RNA using a GoScript™ Reverse Transcriptase kit (Promega) and Oligo(dT)23 Primers (Sigma). The Real-Time PCR was performed with a CTX96 Touch™ Real-Time PCR Detection System (Biorad) in a 20 μL reaction volume. The reaction consisted of PowerUp™ SYBR® Green Master Mix (Applied Biosystems), a primer pair mix (0.5 μM each) and 1 μL of cDNA. All primer pair sequences were purchased from Sigma-Aldrich and are listed in Supplementary Table 2. The experiment was performed under the following conditions: initial denaturation at 95° C for 120 sec; followed by 40 denaturation cycles at 95° C, 15 sec; annealing (primer-specific temperature for 30 sec) and extension at 72° C for 60 sec. Data was analyzed based on a comparison of the expression of the target genes to a reference gene – β-actin, using the 2^–ΔΔCT method. The experiments were performed at least three times.

calf-thymus DNA (CT-DNA) [2] = test: Intercalation, absorption spectra with CT-DNA; assay type: binding; details: for % hypochromism / Changes in absorbance / Δε: bound to CT-DNA; for blue/red shift: wavelengths of maximum absorption, compound alone vs DNA-bound
Protocol: For the DNA binding studies, Calf-thymus DNA (CT-DNA) was purchased from Sigma Aldrich. The lyophilized CT-DNA was dissolved in 10 mM Tris-HCl, pH 7.9, mixed gently and left overnight at 4° C. The purity of the CT-DNA solution was determined by measuring the ratio of UV absorbance at 260 and 280 nm. […] Then, the concentration of CT-DNA was determined from the absorbance at 260 nm using an extinction coefficient of 6600 M^–1cm^–1. The tested TSC and DOX were dissolved in DMSO to a concentration of 8.35 mM, which was then used as the stock solution for preparing the various concentrations (25, 12.5, 6 and 3 µM) in 1 mL in 10 mM of Tris-HCl (pH 7.9). Afterwards, 18 µM CT-DNA was added to the prepared solutions, which were incubated for 1.5 h at 37° C with occasional vortexing. The absorption spectra were measured using a Hitachi U-2900 spectrophotometer in range of 200–500 nm. All absorption spectra were imported and compared in OriginPro 8.0.

p21 = test: Western blot of p21; assay type: cell-based, human; details: HCT116, 1 µM
Protocol: (§4) The HCT116 cells were seeded in 3 cm Petri dishes (Nunc) at a density of 0.5·10^6 cells/well and incubated overnight. The next day, solutions of TSC (1 μM) and DOX (5 μM) were added and the cells incubated for 24 or 48 h. Cells were harvested by trypsinization and washed with cold PBS. Next, the cells were centrifuged and suspended in an RIPA buffer (Thermo Scientific) containing Halt Protease Inhibitor Cocktail (Thermo Scientific), Halt Phosphatase Inhibitor Cocktail (Thermo Scientific) along with 0.5 M EDTA and lysed for 20 min on ice. Then, the lysates were sonicated, centrifuged at 10,000 rpm for 10 min at 4° C and the supernatants were collected for further analysis. The protein concentration was determined using a Micro BCA™ Protein Assay Kit (Thermo Scientific) according to the manufacturer’s instructions. Equal amounts of the proteins (20 μg) were electrophoresed on SDS-Page gels and transferred onto a nitrocellulose membranes. The membranes were blocked in 5% non-fat milk prepared in PBS containing 0.1% Tween-20 (TPBS) for 1 h. After blocking, the membranes were incubated with specific primary antibodies: cdc2 (#POH1, Cell Signaling), p21^Waf1/Cip1 (#12D1, Cell Signaling), p53 (#1C12, Cell Signaling) and β-Actin (#8H10D10, Cell Signaling) overnight at 4° C, then washed and incubated with horseradish peroxidase (HRP)-conjugated secondary antibodies for 1h at room temperature. All of antibodies were diluted 1:1000 in 5% milk in TPBS. Finally, the membranes were washed and incubated with a SuperSignal™ West Pico Chemiluminescent Substrate (Thermo Scientific). The chemiluminescence signals were captured using a ChemiDoc™ XRS+ System (BioRad). The experiments were performed at least three times. Densitometric analysis was performed using ImageJ 1.41 software (Wayne Rasband, National Institutes of Health, USA).

HCT116 [3] = test: MTS antiproliferative assay, HCT116 (with or without added metal ions); assay type: cell-based, human
Protocol: as §1, §2

HCT116 [4] = tested on: HCT116; design: method as in PMID 25329549; details: 96 h incubation, MTS; cited from earlier work
MnSOD = test: mRNA expression (Real-Time PCR) of MnSOD; assay type: cell-based, human; details: HCT116, TSC 1 µM, 12 or 24 h
Protocol: as §3

NHDF [5] = tested on: NHDF; design: method as in PMID 25329549; details: 96 h incubation, MTS; cited from earlier work
Ndrg1 = test: mRNA expression (Real-Time PCR) of Ndrg1; assay type: cell-based, human; details: HCT116, TSC 1 µM, 24 h
Protocol: as §3

HCT116 cells = test: Time dependent measurement of ROS level; assay type: cell-based, human; details: 1 µM; 3, 6, 9, 12, 24 h
Protocol: To determine the intracellular levels of ROS, HCT116 cells were seeded onto black 96-well plates (Corning) at a density of 9,000 cells/well and incubated at 37° C. After an overnight incubation, the solutions of the tested compounds: 1a-c, 2 a-b, 3 a-c, Dp44mT (1 μM) and DOX (5 μM) were added and incubated for 3, 6, 9, 12, and 24 h in a kinetic experiment. The generation of ROS was measured using a CellROX® Green Reagent (Molecular Probes™). Additionally, the quantity of cells in each well was determined using Hoechst 33342 (Molecular Probes™). The solutions of the tested compounds were removed and 100 µL of CellROX Green Reagent and Hoechst 33342 at a final concentration of 5 μM were added to each well. Then, the cells were incubated for 30 min at 37° C. The fluorescence was measured using a multi-plate reader (Synergy 4, Bio Tek) at 485 nm excitation and a 520 nm emission for CellROX Green Reagent and a 345 nm excitation laser and a 485 nm emission filter for Hoechst 33342. The experiments were performed three to four times. ROS levels were expressed as the percentage of the control cells level.

cdc2 = test: Western blot of cdc2; assay type: cell-based, human; details: HCT116, 1 µM
Protocol: as §4

calf-thymus DNA (CT-DNA) [6] = tested on: calf-thymus DNA (CT-DNA); design: method as in PMID 26599982; details: cited from earlier work
[7] = 96 h, 20 µM CuSO4 added, read-out: Activity - IC50 MCF-7+ Cu^2+
[8] = 96 h, 20 µM FeCl3 added, read-out: Activity - IC50 MCF-7+ Fe^3+
[9] = 96 h incubation, MTS, read-out: Activity - IC50 MCF-7
[10] = 96 h, 20 µM CuSO4 added, read-out: Activity - IC50 HCT116+ Cu^2+
[11] = 96 h, 20 µM FeCl3 added, read-out: Activity - IC50 HCT116+ Fe^3+

IC50 (MCF-7; [7]): 4.48 ± 1.18 nM
IC50 (MCF-7; [8]): 39.1 ± 6.51 nM
IC50 (MCF-7; [9]): 17.2 ± 2.71 nM
IC50 (HCT116 [3]; [10]): 7.19 ± 1.84 nM
IC50 (HCT116 [3]; [11]): 70.8 ± 7.28 nM
IC50 (HCT116 [3]; 96 h incubation, MTS, read-out: Activity - IC50 HCT116): 72.1 ± 9.4 nM
SMILES: FC(F)(F)c1cnc(N2CCN(C(=S)NN=Cc3ccc4ccccc4n3)CC2)c(Cl)c1 [Compound 1c]
IC50 (NHDF [1]): 17100 nM
mRNA expression of CAT (CAT): higher
% hypochromism (calf-thymus DNA (CT-DNA) [2]): 22.6%
Changes in absorbance (calf-thymus DNA (CT-DNA) [2]): hypochromism
Δε (calf-thymus DNA (CT-DNA) [2]): 2695.6 M⁻¹ cm⁻¹
blue/red shift (calf-thymus DNA (CT-DNA) [2]): 4 nm
expression of p21 protein (densitometric analysis) (p21): marked up-regulation
improvement in cytotoxicity after interacting with Cu^2+ (HCT116 [3]; HCT116 cells, 20 µM CuSO4): more than a ten-fold increase

IC50 (MCF-7; [7]): 4.41 ± 1.5 nM
IC50 (MCF-7; [8]): 16.6 ± 2.25 nM
IC50 (MCF-7; [9]): 25.6 ± 6.74 nM
IC50 (HCT116 [3]; [10]): 4.95 ± 1.64 nM
IC50 (HCT116 [3]; [11]): 29.5 ± 3.69 nM
SMILES: S=C(NN=C(c1ccccn1)c1ccccn1)N1CCN(c2cnccn2)CC1 [Compound 3c]
IC50 (HCT116 [4]): 37.8 ± 3.05 nM
mRNA expression of MnSOD (MnSOD): large drop
IC50 (NHDF [5]): 13.85 ± 0.03 nM
mRNA expression of Ndrg1 (Ndrg1): strongest
level of ROS, normalized to untreated cells (HCT116 cells): only a minute increase
% hypochromism (calf-thymus DNA (CT-DNA) [2]): 28.5%
Changes in absorbance (calf-thymus DNA (CT-DNA) [2]): hypochromism
Δε (calf-thymus DNA (CT-DNA) [2]): 3220.0 M⁻¹ cm⁻¹
blue/red shift (calf-thymus DNA (CT-DNA) [2]): 2 nm
expression of p21 protein (densitometric analysis) (p21): marked up-regulation
expression of cdc2 protein (densitometric analysis) (cdc2): strongest decreasing effect

IC50 (MCF-7; Homo sapiens, MCF7, 96 h, 20 µM CuSO4 added, read-out: Activity - IC50 MCF-7+ Cu^2+): 336 ± 65.3 nM
IC50 (MCF-7; Homo sapiens, MCF7, 96 h, 20 µM FeCl3 added, read-out: Activity - IC50 MCF-7+ Fe^3+): 414 ± 59 nM
IC50 (MCF-7; Homo sapiens, MCF7, 96 h incubation, MTS, read-out: Activity - IC50 MCF-7): 405 ± 38 nM
IC50 (HCT116 [3]; Homo sapiens, HCT-116, 96 h, 20 µM CuSO4 added, read-out: Activity - IC50 HCT116+ Cu^2+): 62.5 ± 8.24 nM
IC50 (HCT116 [3]; Homo sapiens, HCT-116, 96 h, 20 µM FeCl3 added, read-out: Activity - IC50 HCT116+ Fe^3+): 84.8 ± 11.2 nM
IC50 (HCT116 [3]; Homo sapiens, HCT-116, 96 h incubation, MTS, read-out: Activity - IC50 HCT116): 91 ± 6.96 nM
SMILES: COc1cccc2c1C(=O)c1c(O)c3c(c(O)c1C2=O)C[C@@](O)(C(=O)CO)C[C@@H]3O[C@H]1C[C@H](N)[C@H](O)[C@H](C)O1 [DOX, doxorubicin, reference compound]
IC50 (NHDF [1]; Homo sapiens, NHDF): 137 ± 26 nM
Selectivity index, calculated for MCF-7 (MCF-7; versus NHDF): 0.3
% hypochromism (calf-thymus DNA (CT-DNA) [6]; bound to CT-DNA): 34.2%
Changes in absorbance (calf-thymus DNA (CT-DNA) [6]; bound to CT-DNA): hypochromism
Δε (calf-thymus DNA (CT-DNA) [6]; bound to CT-DNA): 3235.6 M⁻¹ cm⁻¹
% hypochromism (calf-thymus DNA (CT-DNA) [6]; bound to CT-DNA, listed as doxorubicin): about 34.2%
blue/red shift (calf-thymus DNA (CT-DNA) [6]; wavelengths of maximum absorption, compound alone vs DNA-bound): 10 nm
Selectivity index, calculated for HCT116 (HCT116 [3]; versus NHDF): 1.5
